In patent publication US20100179344A1, “2-Alkylidene-18,19-Dinor-Vitamin D Compounds” (WISCONSIN ALUMNI RESEARCH FOUNDATION, priority 2004, published 2010):

How the values were obtained:
[1] = system: HL-60 cells; assay: HL-60 cell differentiation (NBT reduction); assay type: cell-based, human; settings: FIG. 2; for percent of HL-60 cells induced to differentiate: NBT assay, concentration 1×10^−7M
Experimental: The differentiation of HL-60 promyelocytic into monocytes was determined as described by Ostrem et al (J. Biol. Chem. 262, 14164-14171, 1987).
The study drugs were dissolved in ethanol and the concentrations determined using UV spectrophotometry (2MD:molar extinction coefficient=42,000 and Imax=252 nm; 1,25(OH)2D3:molar extinction=18,200 and Imax=265 nm). Serial dilutions were prepared so that a range of drug concentrations could be tested without changing the final concentration of ethanol (<0.2%) present in the cell cultures.
Human promyelocytic leukemia (HL60) cells were grown in RPMI-1640 medium containing 10% fetal bovine serum. The cells were incubated at 37° C. in the presence of 5% CO2.
HL60 cells were plated at 1.2×10^5 cells/ml. Eighteen hours after plating, the cells were administered the drug in ethanol. Four days post-dose, the cells were harvested and a nitro blue tetrazolium reduction assay was performed (Collins et al., 1979; J. Exp. Med. 149:969-974, Appendix A). The percentage of differentiated cells was determined by counting a total of 200 cells and recording the number that contained intracellular black-blue formazan deposits. Verification of differentiation to monocytic cells was determined by measuring phagocytic activity (data not shown). All drug concentrations were tested in duplicate.
This is illustrated by the biological assay results obtained for (20S)-2-methylene-18,19-dinor-1α,25-dihydroxy-vitamin D3 which is summarized in FIGS. 2 through 6. […] Differentiation activity was assessed by a standard differentiation assay, abbreviated as NBT reduction (nitroblue tetrazolium reduction). The assay was conducted according to known procedures, as given, for example, by DeLuca et al U.S. Pat. No. 4,717,721 and Ostrem et al, J. Biol. Chem. 262, 14164, 1987. For the assay, the differentiation activity of the test compounds is expressed in terms of the percent of HL-60 cells having differentiated to normal cells in response to a given concentration of test compound.

[2] = molecular target: T1, 1α,25-dihydroxyvitamin D pig intestinal nuclear receptor (Rattus norvegicus, UniProt P13053); assay: Competitive VDR binding; settings: competition with 3H-1,25(OH)2D3; FIG. 1
T1 construct: Full-length recombinant rat receptor was expressed in E. coli; His tag (C); made in house; host or cells: E. coli BL21 (DE3) Codon Plus RIL
T1 sequence (P13053 1-423): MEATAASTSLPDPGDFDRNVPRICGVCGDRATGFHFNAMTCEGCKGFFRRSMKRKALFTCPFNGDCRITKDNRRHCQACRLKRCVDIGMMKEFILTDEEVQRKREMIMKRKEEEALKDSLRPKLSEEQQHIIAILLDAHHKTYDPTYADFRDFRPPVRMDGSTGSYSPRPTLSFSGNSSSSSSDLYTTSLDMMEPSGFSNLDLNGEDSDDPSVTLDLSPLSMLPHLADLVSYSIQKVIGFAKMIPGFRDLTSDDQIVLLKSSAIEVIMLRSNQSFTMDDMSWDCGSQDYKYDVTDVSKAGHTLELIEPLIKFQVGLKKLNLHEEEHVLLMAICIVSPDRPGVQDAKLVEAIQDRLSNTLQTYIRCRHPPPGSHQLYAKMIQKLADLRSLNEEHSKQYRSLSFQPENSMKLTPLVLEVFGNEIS
Experimental: Competitive binding of the analogs to the porcine intestinal receptor was carried out by the method described by Dame et al (Biochemistry 25, 4523-4534, 1986).
Full-length recombinant rat receptor was expressed in E. coli BL21 (DE3) Codon Plus RIL cells and purified using two different column chromatography systems. The first system was a nickel affinity resin that utilized the C-terminal histidine tag on this protein. The protein that was eluted from this resin was further purified using ion exchange chromatography (S-Sepharose Fast Flow). Aliquots of the purified protein were quick frozen in liquid nitrogen and stored at −80° C. until use. […]
Unlabeled ligands were dissolved in ethanol and the concentrations determined using UV spectrophotometry. […]
Radiolabeled and unlabeled ligands were added to 100 mcl of the diluted protein, mixed and incubated overnight on ice to reach binding equilibrium. […] Total binding was determined from the tubes containing only radiolabeled ligand. The percentage of competition was calculated by subtracting the number of dpm remaining in the hydroxylapatite pellet from the total number of dpm bound, dividing by the total number of dpm bound and multiplying by one hundred. Duplicate tubes were prepared and analyzed for each test concentration.

[3] = system: 24-hydroxylase (24OHase) gene promoter in ROS 17/2.8 (bone) cells; assay: Transcription activation, 24-hydroxylase promoter luciferase reporter; assay type: cell-based; settings: luciferase 16 h after dosing, FIG. 3
Experimental: Transcriptional activity was measured in ROS 17/2.8 (bone) cells that were stably transfected with a 24-hydroxylase (24OHase) gene promoter upstream of a luciferase reporter gene (Arbour et al., 1998). Cells were given a range of doses. Sixteen hours after dosing the cells were harvested and luciferase activities were measured using a luminometer.
“RLU” in FIG. 3 refers to relative luciferase units.

[4] = Intestinal calcium transport (everted gut sac); assay type: in vivo, rat; settings: male Sprague-Dawley rats, low calcium diet, four intraperitoneal doses; FIG. 4
From the text: (§1) Weanling, male Sprague-Dawley rats were purchased from Harlan. Upon receipt, the animals were identified by individual tail marks and fed a calcium containing (0.47%) diet (Suda et al., Purified Rodent Diet-Diet 11; Appendix A) for one week before switching to the same diet devoid of calcium (0.02%). Water and a purified rodent diet (Diet 11; Appendix A) containing either 0.47% or 0.02% calcium and 0.3% phosphorus were provided ad libitum. Animals were fed the purified diet containing 0.47% calcium for the first week and then the 0.02% calcium containing diet for the next three weeks of the study. The rats were then fed 0.47% calcium containing diet for one week before switching back to 0.02% calcium containing diet for the remainder of the study. During the second week back on 0.02% calcium containing diet, dose administration began. All doses were administered intraperitoneally in 100 microliters of propylene glycol. Four consecutive doses were given approximately 24 hours apart. […] The level of calcium was determined by diluting the serum into 0.1% lanthum chloride and measuring the absorbance on an atomic absorption spectrophotometer (Perkin Elmer Model 3110, Shelton, Conn.). Twenty-four hours after the last dose, intestinal calcium transport was assessed ex vivo using the everted gut sac technique.

[5] = Bone calcium mobilization (serum calcium); assay type: in vivo, rat; settings: male Sprague-Dawley rats, low calcium diet, four intraperitoneal doses; FIGS. 5 and 6
From the text: as §1, with “diet, the animals were tail-bled (baseline serum calcium) and then” for “diet,”, “was initiated.” for “began.”, “apart. Twenty-four hours after the last dose, blood was collected from the tail artery of each experimental animal.” for “apart.”, “Conn.).” for “Conn.). Twenty-four hours after the last dose, intestinal calcium transport was assessed ex vivo using the everted gut sac technique.”

activity in binding to the 1α,25-dihydroxyvitamin D3 receptor [2]	SMILES	percent of HL-60 cells induced to differentiate [1]	transcriptional activity compared with 1α,25-dihydroxyvitamin D3 [3]	intestinal calcium transport activity compared with 1α,25-dihydroxyvitamin D3 [4]	potency in promoting differentiation of leukemia cells compared with 1α,25-dihydroxyvitamin D3 ([1]; HL-60 cells)	ability to mobilize calcium from bone compared with 1α,25-dihydroxyvitamin D3 [5]
–	C=C1/C(=C\C=C2/CCC[C@]3(C)[C@@H]([C@H](C)CCCC(C)(C)O)CC[C@@H]23)C[C@@H](O)C[C@@H]1O [C001, 1α,25-dihydroxyvitamin D3, reference compound]	~90%	–	–	–	–
very active	C=C1[C@H](O)CC(=C/C=C2\CCC[C@@H]3C([C@@H](C)CCCC(C)(C)O)CC[C@@H]23)C[C@H]1O (stereo partly drawn) [DP035, (20S)-2-methylene-18,19-dinor-1α,25-dihydroxyvitamin D3]	the same degree of differentiation	higher transcriptional activity	as active as	more potent	clearly not as active
